Some test systems named below: SF-268 CNS; HL-60(TB) leukemia; NCI-H23 lung; HCT-15 colon; SK-MEL-28 melanoma; 786-0 renal; A498 renal; U251 CNS; CCRF-CEM leukemia; HOP-62 NSCLC.
Common to all, as to assay: NCI tumour cell line growth inhibition, 48 h

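Grown in 96-well plates, cells were treated for 48 hours with each compound at five concentrations. Insufficient inhibition: endpoint recorded as highest concentration tested. At the GI50, growth is halved. TGI is the concentration that stops growth completely.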

With `CC1(CC(=O)O)OC2CCCCCC2O1` (configuration not stated) (tested in a mixture with another compound), the TGI in the assay on SF-268 CNS, in the assay on HL-60(TB) leukemia, with NCI-H23 lung, in the assay with HCT-15 colon, in the assay on SK-MEL-28 melanoma and in the assay with 786-0 renal was greater than 100 µM each time. Also, the TGI is greater than 100 µM in the assay on A498 renal, greater than 100 µM in the assay with U251 CNS, 84.5 µM in the assay with CCRF-CEM leukemia and greater than 100 µM in the assay on HOP-62 NSCLC.
For the compound `O=C(O)c1cc(Cl)cc(NC(=O)C(Cl)Cl)c1Cl`, the TGI in the assay with SF-268 CNS, in the assay on HL-60(TB) leukemia, in the assay with NCI-H23 lung, in the assay on HCT-15 colon, with SK-MEL-28 melanoma and in the assay on 786-0 renal was greater than 100 µM in each case. In addition, the TGI with A498 renal, with U251 CNS, in the assay with CCRF-CEM leukemia and in the assay with HOP-62 NSCLC was greater than 100 µM throughout.
With `CCOC(=O)c1[nH]c2c(c1C)-c1[nH]c(=O)c(S(=O)(=O)c3ccccc3)cc1SC2`, the GI50 is 34.5 µM with SF-268 CNS; 23.2 µM with HL-60(TB) leukemia; 41.1 µM in the assay with NCI-H23 lung; greater than 100 µM in the assay on HCT-15 colon; 70 µM in the assay on SK-MEL-28 melanoma; 46.3 µM with 786-0 renal. Besides, the GI50 with A498 renal was 1.68 µM; with U251 CNS, 31.1 µM; in the assay on CCRF-CEM leukemia, 57.8 µM; with HOP-62 NSCLC, 44.3 µM. The TGI in the assay with SF-268 CNS, in the assay with HL-60(TB) leukemia, in the assay with NCI-H23 lung, with HCT-15 colon, in the assay with SK-MEL-28 melanoma and in the assay with 786-0 renal was greater than 100 µM each time. In addition, the TGI in the assay with A498 renal, in the assay on U251 CNS, with CCRF-CEM leukemia and with HOP-62 NSCLC was greater than 100 µM each time.
For `Cc1ccc(NCSc2ccc(Cl)cc2)cc1`, the GI50 is 13.1 µM in the assay with SF-268 CNS; 2.45 µM in the assay on HL-60(TB) leukemia; 63.4 µM with NCI-H23 lung; greater than 100 µM in the assay with HCT-15 colon; greater than 100 µM in the assay on SK-MEL-28 melanoma; 6.53 µM with 786-0 renal. Also, the GI50 is 18.8 µM in the assay on A498 renal, 17.8 µM in the assay with U251 CNS, 0.995 µM in the assay with CCRF-CEM leukemia and 30.7 µM in the assay with HOP-62 NSCLC. The TGI in the assay on SF-268 CNS, in the assay on HL-60(TB) leukemia, in the assay with NCI-H23 lung, in the assay on HCT-15 colon, in the assay on SK-MEL-28 melanoma and in the assay with 786-0 renal was greater than 100 µM throughout. Besides, the TGI in the assay on A498 renal, in the assay on U251 CNS, with CCRF-CEM leukemia and with HOP-62 NSCLC was greater than 100 µM in each case.
As for `CC1Cc2c(N(C)C)ncnc2N(C)c2ccc(Cl)cc21` (configuration not stated), the GI50 in the assay on SF-268 CNS is 8.09 µM; with HL-60(TB) leukemia, 2.81 µM; with NCI-H23 lung, 5.74 µM; with HCT-15 colon, 2.83 µM; in the assay on SK-MEL-28 melanoma, 10.8 µM; with 786-0 renal it was 8.26 µM. The GI50 is 3.53 µM in the assay with A498 renal, 4.99 µM in the assay on U251 CNS, 2.92 µM in the assay with CCRF-CEM leukemia and 4.81 µM in the assay on HOP-62 NSCLC. The TGI in the assay with SF-268 CNS was greater than 100 µM; in the assay with HL-60(TB) leukemia, 15.8 µM; in the assay with NCI-H23 lung, greater than 100 µM; with HCT-15 colon, 85.9 µM; with SK-MEL-28 melanoma it was greater than 100 µM; in the assay with 786-0 renal, 29.3 µM. In addition, the TGI in the assay with A498 renal was 19.2 µM; in the assay on U251 CNS, 29.1 µM; with CCRF-CEM leukemia it was 18 µM; in the assay on HOP-62 NSCLC it was 73.4 µM.
Take `Cc1ccc([P+](Cc2ccc([N+](=O)[O-])cc2)(c2ccc(C)cc2)c2ccc(C)cc2)cc1`: the GI50 is 3.45 µM in the assay on SF-268 CNS; 0.997 µM with HL-60(TB) leukemia; 18.2 µM in the assay with HCT-15 colon; 2.82 µM with SK-MEL-28 melanoma; 9.72 µM in the assay on 786-0 renal; 2.54 µM with A498 renal. Moreover, the GI50 is 2.56 µM with U251 CNS, 1.92 µM in the assay with CCRF-CEM leukemia and 10.4 µM with HOP-62 NSCLC. Also, the TGI in the assay on SF-268 CNS was determined as 14 µM; with HL-60(TB) leukemia, 3.14 µM; with HCT-15 colon, 46.2 µM; in the assay on SK-MEL-28 melanoma it was 12.9 µM; with 786-0 renal, 22.3 µM; in the assay with A498 renal it was 12.7 µM. The TGI in the assay with U251 CNS is 12.2 µM; in the assay with CCRF-CEM leukemia it was 12.5 µM; in the assay on HOP-62 NSCLC, 23.8 µM.
Regarding `CCC1OCCN1C(C)C` (configuration not stated), the TGI is greater than 100 µM in the assay on SF-268 CNS; greater than 100 µM in the assay with HL-60(TB) leukemia; greater than 100 µM with NCI-H23 lung; greater than 100 µM in the assay on HCT-15 colon; 92.2 µM with SK-MEL-28 melanoma; greater than 100 µM with 786-0 renal. Also, the TGI with A498 renal, in the assay with U251 CNS and in the assay on CCRF-CEM leukemia was greater than 100 µM in each case.
Turning to `COc1cc2ccn3c4cc(OC)c(OC)cc4cc3c2cc1OC`, the TGI in the assay on SF-268 CNS, in the assay on HL-60(TB) leukemia, with NCI-H23 lung, in the assay on SK-MEL-28 melanoma, in the assay on 786-0 renal and in the assay on A498 renal was greater than 100 µM throughout. Besides, the TGI in the assay with U251 CNS, in the assay on CCRF-CEM leukemia and in the assay on HOP-62 NSCLC was greater than 100 µM in each case.
As to `CC1CCC(O)C(C(O)CC2CC(=O)N(C)C(=O)C2)C1` (configuration not stated), the TGI with SF-268 CNS, with HL-60(TB) leukemia, in the assay with NCI-H23 lung, in the assay on SK-MEL-28 melanoma, in the assay with 786-0 renal and with A498 renal was greater than 100 µM throughout. Moreover, the TGI in the assay with U251 CNS, in the assay on CCRF-CEM leukemia and with HOP-62 NSCLC was greater than 100 µM throughout.
`COc1cc2c3c(c1OC)-c1ccccc1C(C(OC(C)=O)c1ccccc1)C3N(C)CC2` (configuration not stated): the TGI in the assay on SF-268 CNS, with HL-60(TB) leukemia, with NCI-H23 lung, with HCT-15 colon, with SK-MEL-28 melanoma and in the assay on 786-0 renal was greater than 100 µM each time. The TGI with A498 renal, in the assay on U251 CNS and in the assay with CCRF-CEM leukemia was greater than 100 µM each time.
As for `Cn1c(=O)c2c3oc(=O)cc(O)c3c(=O)n3c4ccccc4n(c1=O)c23`, the TGI was greater than 100 µM in the assay on SF-268 CNS; 78.7 µM in the assay on HL-60(TB) leukemia; greater than 100 µM with NCI-H23 lung; greater than 100 µM with HCT-15 colon; greater than 100 µM with 786-0 renal; greater than 100 µM in the assay with A498 renal. Moreover, the TGI in the assay with U251 CNS, in the assay with CCRF-CEM leukemia and in the assay on HOP-62 NSCLC was greater than 100 µM each time.
For `COc1ccc([Se]c2ccc(OC)cc2OC)c(OC)c1`, the TGI in the assay on SF-268 CNS was greater than 100 µM; in the assay with HL-60(TB) leukemia it was greater than 100 µM; with NCI-H23 lung, greater than 100 µM; with SK-MEL-28 melanoma, 77.1 µM; in the assay with 786-0 renal, greater than 100 µM; in the assay on A498 renal, 70.3 µM. Also, the TGI with U251 CNS and in the assay with CCRF-CEM leukemia was greater than 100 µM each time.
For the compound `CN1C(=O)c2cc(Cl)nc3c(NC(=O)c4cccc(Cl)c4)c(Cl)c(NC(=O)c4cccc(Cl)c4)c1c23`, the GI50 with SF-268 CNS is 1.83 µM; in the assay with HL-60(TB) leukemia, 2.17 µM; in the assay on NCI-H23 lung it was 2.14 µM; with HCT-15 colon, 0.581 µM; in the assay on SK-MEL-28 melanoma it was 1.78 µM; in the assay on 786-0 renal, 2.69 µM. The figures for the GI50 in the assay on A498 renal, in the assay with U251 CNS and in the assay on CCRF-CEM leukemia were 3.49 µM, 1.82 µM and 2.01 µM, respectively. In addition, the TGI was 3.73 µM in the assay with SF-268 CNS; 5.11 µM in the assay with HL-60(TB) leukemia; 5.92 µM in the assay on NCI-H23 lung; 1.94 µM with HCT-15 colon; 3.45 µM in the assay on SK-MEL-28 melanoma; 7.96 µM in the assay on 786-0 renal. Also, the TGI with A498 renal was 12.7 µM; with U251 CNS, 3.24 µM; in the assay on CCRF-CEM leukemia, 5.59 µM.
For the compound `COC(=O)c1cc(Nc2ccc(O)c3c2C(=O)c2c([N+](=O)[O-])ccc(O)c2C3=O)cc(C(=O)OC)c1`, the GI50 is 7.97 µM in the assay with SF-268 CNS; 18.4 µM in the assay with HL-60(TB) leukemia; 2.77 µM in the assay on HCT-15 colon; 30.6 µM in the assay on 786-0 renal; 20.8 µM with A498 renal; 25.7 µM in the assay on U251 CNS. The results for the GI50 in the assay with CCRF-CEM leukemia and with HOP-62 NSCLC were 4.27 µM and 4.04 µM, respectively. In addition, the TGI with SF-268 CNS is greater than 100 µM; in the assay with HL-60(TB) leukemia, 88.2 µM; with HCT-15 colon, greater than 100 µM; with 786-0 renal it was greater than 100 µM; with A498 renal, greater than 100 µM; with U251 CNS, greater than 100 µM. Besides, the TGI in the assay with CCRF-CEM leukemia and in the assay on HOP-62 NSCLC was greater than 100 µM each time.
Turning to `O=C1C=C(Nc2cccc(Br)c2)c2ccccc2C1=O`, the GI50 is 9.01 µM in the assay with SF-268 CNS; 9.56 µM in the assay with HL-60(TB) leukemia; 1.33 µM in the assay on HCT-15 colon; 8.76 µM in the assay on SK-MEL-28 melanoma; 7.25 µM in the assay on 786-0 renal; 4.06 µM in the assay with A498 renal. The GI50 with U251 CNS is 2.74 µM; in the assay on CCRF-CEM leukemia, 21.4 µM; with HOP-62 NSCLC, 2.29 µM. Also, the TGI was greater than 100 µM in the assay on SF-268 CNS; 34.5 µM in the assay with HL-60(TB) leukemia; greater than 100 µM in the assay with HCT-15 colon; 61.4 µM in the assay on SK-MEL-28 melanoma; 28.2 µM in the assay on 786-0 renal; 27.2 µM with A498 renal. The TGI in the assay on U251 CNS came out at 22.1 µM; in the assay with CCRF-CEM leukemia it was 82.9 µM; with HOP-62 NSCLC, 26.1 µM.
Regarding `CC1=C(C#N)C(N)=C2C(C)=C(C#N)C(N)=C12`, the TGI in the assay with SF-268 CNS, with HL-60(TB) leukemia, in the assay on NCI-H23 lung, in the assay on HCT-15 colon, with 786-0 renal and in the assay with A498 renal was greater than 100 µM throughout. Moreover, the TGI in the assay with U251 CNS, with CCRF-CEM leukemia and in the assay with HOP-62 NSCLC was greater than 100 µM in each case.

The record behind these values is PubChem BioAssay (NCI).
